From patent publication US12018033B2, “Inhibitors of protein arginine deiminases” (Forward Therapeutics, Inc., priority 2018, dated 2024)

Target: T1, Recombinant human PAD4 (2-663) (Homo sapiens, UniProt Q9UM07)
T1 construct: Recombinant human PAD4 (2-663) was expressed in E. coli; made in house; host or cells: E. coli
Assay: PAD4 Inhibition Assay
Type: biochemical
Conditions: 60 mins pre-incubation at RT; substrate BAEE with CaCl2; fluorescent signal (λex 405/λem 460)
Protocol: Protein: Recombinant human PAD4 (2-663) was expressed in E. coli as an N-terminal Strep-tag and C-terminal 6-his tag fusion protein. Protein was purified using Strep-tactin resin followed by size exclusion chromatography. Tags were not removed during purification. Activity of the protein was determined using ammonia quantification assay.
PAD4 enzyme (10 μL) was diluted to concentration of 75 nM in assay buffer A (100 mM HEPES, pH 8, 50 mM NaCl, 2 mM DTT, 0.6 mg/mL BSA and 0.5% DMSO) and added to wells containing 10 μL of various concentrations of test compound, or DMSO vehicle in buffer A with 1.5% final DMSO concentration in a Corning high volume 384 well black plate. Following 60 mins pre-incubation at RT with gentle shaking, the reaction was initiated by the addition of 10 μL of substrate buffer containing 3 mM N-α-benzoyl-L-arginine ethyl ester (BAEE) and 600 μM CaCl2) in assay buffer A. The reaction was stopped after 60 mins with the addition of 15 μL stop/detection buffer containing 7.5 mM phthalaldehyde, 50 mM EDTA and 7.5 mM DTT in assay buffer A. Quenched reactions were incubated at RT for 45 mins before measuring fluorescent signal (λex 405/λem 460) on an Envision plate reader (Perkin Elmer Life Sciences, Waltham, Mass., USA).

T1 sequence (Q9UM07 2-663): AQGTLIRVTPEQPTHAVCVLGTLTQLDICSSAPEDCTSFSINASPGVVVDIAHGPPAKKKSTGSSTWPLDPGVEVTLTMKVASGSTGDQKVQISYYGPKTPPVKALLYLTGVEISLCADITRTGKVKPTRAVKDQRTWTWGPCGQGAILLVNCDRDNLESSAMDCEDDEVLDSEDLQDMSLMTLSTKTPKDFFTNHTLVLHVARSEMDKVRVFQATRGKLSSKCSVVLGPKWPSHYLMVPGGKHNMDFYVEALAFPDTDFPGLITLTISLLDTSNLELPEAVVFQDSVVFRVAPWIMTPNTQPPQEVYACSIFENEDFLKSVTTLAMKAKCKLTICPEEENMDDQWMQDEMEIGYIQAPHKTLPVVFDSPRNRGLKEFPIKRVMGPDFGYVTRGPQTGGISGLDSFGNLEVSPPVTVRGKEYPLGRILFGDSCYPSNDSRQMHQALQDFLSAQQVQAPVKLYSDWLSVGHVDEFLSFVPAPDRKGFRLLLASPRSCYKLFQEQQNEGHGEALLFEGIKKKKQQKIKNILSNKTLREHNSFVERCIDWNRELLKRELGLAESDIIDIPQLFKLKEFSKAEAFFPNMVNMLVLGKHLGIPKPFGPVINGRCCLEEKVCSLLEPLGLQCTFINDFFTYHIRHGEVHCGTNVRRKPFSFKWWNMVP

SMILES	IC50 [µM]
O=C(c1cc2cc(Cl)c(F)c(F)c2[nH]1)N1CC[C@@H]2CNC[C@@H]21 [Example 58, (5-chloro-6,7-difluoro-1H-indol-2-yl)((3aR,6aR)-hexahydropyrrolo[3,4-b]pyrrol-1(2H)-yl)methanone]	10 to 100
O=C(NC[C@H]1CCNC1)c1cc2cc(Cl)c(F)c(F)c2[nH]1 [Example 62, (S)-5-chloro-6,7-difluoro-N-(pyrrolidin-3-ylmethyl)-1H-indole-2-carboxamide]	10 to 100
O=C(NC[C@@H]1CCNC1)c1cc2cc(Cl)c(F)c(F)c2[nH]1 [Example 63, (R)-5-chloro-6,7-difluoro-N-(pyrrolidin-3-ylmethyl)-1H-indole-2-carboxamide]	10 to 100
C[C@@H](CN)N(C)C(=O)c1cc2cc(Cl)c(F)c(F)c2[nH]1 [Example 64, (S)-N-(1-aminopropan-2-yl)-5-chloro-6,7-difluoro-N-methyl-1H-indole-2-carboxamide]	1 to 10

Now from value to compound:

IC50 [µM]	SMILES
10 to 100	O=C(c1cc2cc(Cl)c(F)c(F)c2[nH]1)N1C[C@H]2CNC[C@H]2C1 [Example 59, (5-chloro-6,7-difluoro-1H-indol-2-yl)((3aR,6aS)-hexahydropyrrolo[3,4-c]pyrrol-2(1H)-yl)methanone]
10 to 100	O=C(c1cc2cc(Cl)c(F)c(F)c2[nH]1)N1CC2(CNC2)C1 [Example 60, (5-chloro-6,7-difluoro-1H-indol-2-yl)(2,6-diazaspiro[3.3]heptan-2-yl)methanone]
10 to 100	O=C(c1cc2cc(Cl)c(F)c(F)c2[nH]1)N1CC2(CCNC2)C1 [Example 61, (5-chloro-6,7-difluoro-1H-indol-2-yl)(2,6-diazaspiro[3.4]octan-2-yl)methanone]
1 to 10	N[C@H]1CN(C(=O)c2cc3cc(Br)c(F)c(F)c3[nH]2)C[C@@H]1O [Example 65, ((3S,4S)-3-amino-4-hydroxypyrrolidin-1-yl)(5-bromo-6,7-difluoro-1H-indol-2-yl)methanone]
1 to 10	N[C@H]1CN(C(=O)c2cc3cc(I)c(F)c(F)c3[nH]2)C[C@@H]1O [Example 66, ((3S,4S)-3-amino-4-hydroxypyrrolidin-1-yl)(6,7-difluoro-5-iodo-1H-indol-2-yl)methanone]
1 to 10	N[C@H]1CN(C(=O)c2cc3cc(Br)c(F)c(F)c3[nH]2)C[C@H]1O [Example 67, ((3S,4R)-3-amino-4-hydroxypyrrolidin-1-yl)(5-bromo-6,7-difluoro-1H-indol-2-yl)methanone]
